Assay results reported in article PMC9038204, “SNX27–Retromer directly binds ESCPE-1 to transfer cargo proteins during endosomal recycling” (PLoS Biology, 2022).
Like-named read-outs stand apart in the source and are kept apart here. Where no end group is shown, it is not given here.

Tests used:
[1] = test system: HeLa cells, surface GLUT1; test: Surface biotinylation, cell surface level of GLUT1; assay type: cell-based
Protocol: (§1) For western blotting, cells were lysed in PBS with 1% (v/v) Triton X-100 and protease inhibitor cocktail. The protein concentration was determined with a BCA assay kit (Thermo Fisher Scientific, USA), and equal amounts were resolved on NuPAGE 4% to 12% precast gels (Invitrogen, USA). Blotting was performed onto polyvinylidene fluoride membranes (Immobilon-FL; EMD Millipore, USA) followed by detection using the Odyssey infrared scanning system (LI-COR Biosciences, USA). For GFP-based immunoprecipitations, HEK-293T cells were lysed 48 hours after transfection in immunoprecipitation buffer (50 mM Tris-HCl, 0.5% (v/v) NP-40, and Roche protease inhibitor cocktail) and subjected to GFP trap (ChromoTek, Germany). Immunoblotting was performed using standard procedures. Detection was performed on an Odyssey infrared scanning system (LI-COR Biosciences) using fluorescently labeled secondary antibodies. In using the Odyssey, we routinely performed western blot analysis where a single blot is simultaneously probed with antibodies against 2 proteins of interest (distinct antibody species) followed by visualization with the corresponding secondary antibodies conjugated to distinct spectral dyes.
(§2) For surface biotinylation experiments, fresh Sulfo-NHS-SS Biotin (Thermo Fisher Scientific, #21217) was dissolved in ice-cold PBS at pH 7.8 at a final concentration of 0.2 mg/ml. Cells were washed twice in ice-cold PBS and placed on ice to slow down the endocytic pathway. Next, cells were incubated with the biotinylation reagent for 30 minutes at 4°C followed by incubation in TBS for 10 minutes to quench the unbound biotin. The cells were then lysed in lysis buffer and subjected to Streptavidin beads-based affinity isolation (GE Healthcare, USA).

[2] = test system: HeLa cells, surface ITGA5; test: Surface biotinylation, cell surface level of ITGA5; assay type: cell-based
Protocol: as §1, §2

[3] = molecular target: T1, full-length mouse SNX27 (mSNX27FL) (Mus musculus, UniProt Q3UHD6); test: ITC, hSNX1/2 peptides against mSNX27FL; assay type: binding; settings: 25°C, 50 mM HEPES pH 7.5, 200 mM NaCl, 5% glycerol, 1 mM β-ME, 800 μM peptide titrated into 20 μM mSNX27FL, single-site fit, mean of at least 2 experiments
T1 construct: DNA encoding full-length mouse SNX27 (mSNX27FL hereafter) was inserted into the pMCSG7 vector; made in house; host or cells: Escherichia coli BL21 CodonPlus (DE3)
Protocol: Human SNX1 and SNX2 peptide sequences were synthesized by Genscript (USA). To obtain the peptide stock solutions at neutral pH, 100 mM Tris-HCl, pH 10.6 was used to dissolve the peptide to a final concentration of 8 mM. The peptides were SNX1_35-51 […], SNX135-51(D45K) […], SNX1_75-92 […], SNX2_16-33 […], SNX2_16-33(DLF/SSS) […], and SNX2_62-82 […].
(§3) All microcalorimetry experiments were conducted at 25°C using a PEAQ ITC (Malvern, UK) in 50 mM HEPES (pH 7.5), 200 mM NaCl, 5% glycerol, and 1 mM β-ME (ITC buffer). All proteins were purified by SEC using the same buffer prior to ITC experiments to avoid buffer mismatches. To measure binding of SNX27 to SNX1 proteins, 800 μM of hSNX27FERM was titrated into 20 μM of GST-mSNX1_1-139 or His-SNX1FL. For the binding of SNX1 and SNX2 peptides to SNX27, peptides were diluted 10-fold to 800 μM in ITC buffer peptides and titrated into 20 μM SNX27FL proteins containing the same 1:10 ratio of peptide buffer (100 mM Tris-HCl, pH 10.6). The competitive ITC experiments were carried out by titrating 800 μM SNX1_75-92 peptides into 20 μM proteins with 2-fold molar excess SNX2_16-33 peptide preincubated with SNX27 on ice for an hour. For ITC experiment using SNX1_75-92 against hSNX27 wild-type and single-site mutants, 600 μM SNX1_75-92 peptide was titrated into 20 μM hSNX27 proteins.
The ITC experiments were conducted with 1 injection of 0.4 μL followed by a series of 12 injections of 3.2 μL each with 180-second intervals and a stirring speed of 850 rpm. The heat exchange of interactions was obtained through integrating the observed peaks and background correction by subtracting the heats of dilution. Data were analyzed with Malvern software package by fitting and normalized data to a single-site binding model, yielding the thermodynamic parameters Kd, ΔH, ΔG, and −TΔS for all binding experiments. The stoichiometry was refined initially, and if the value was close to 1, then N was set to exactly 1.0 for calculation. All experiments were performed at least twice to guarantee reproducibility of the data.

[4] = test system: HeLa cells, EEA1 endosomes; test: Colocalization of GFP-tagged SNX27 or SNX1 constructs with EEA1 (Pearson); assay type: cell-based
Protocol: (§4) Cells were fixed in 4% (v/v) PFA for 20 minutes and washed 3 times in PBS and permeabilized with 0.1% (v/v) Triton X-100. For LAMP1 staining, cells were instead permeabilized by submersion in liquid nitrogen for 20 seconds. Fixed cells were blocked in 1% (w/v) BSA and incubated in primary antibody and respective secondary antibody (Alexa Fluor; Thermo Fisher Scientific) in 1% (w/v) BSA.
(§5) Microscopy images were collected with a confocal laser-scanning microscope (SP5 AOBS; Leica Microsystems, Germany) attached to an inverted epifluorescence microscope (DMI6000; […]). A 63× 1.4 NA oil immersion objective (Plan Apochromat BL; Leica Biosystems, Germany) and the standard SP5 system acquisition software and detector were used. Images were captured at room temperature as z stacks with photomultiplier tube detectors with a photocathode made of gallium-arsenide-phosphide (Leica Microsystems) for collecting light emission. Images were captured using Application Suite AF software (version 2.7.3.9723; Leica Microsystems) and then analyzed with the Volocity 6.3 software (PerkinElmer, USA).

[5] = test system: HeLa cells, SNX6 endosomes; test: Colocalization of GFP-tagged SNX27 or SNX1 constructs with SNX6 (Pearson); assay type: cell-based
Protocol: as §4, §5

hSNX27FL K495D = molecular target: T2, hSNX27FL K495D (Homo sapiens, UniProt Q96L92, K495D); test: ITC, hSNX1 peptide 75-92 against hSNX27FL K495D; assay type: binding; settings: 25°C, 600 μM SNX1_75-92 into 20 μM hSNX27FL K495D
T2 construct: FL, full-length; ITC, isothermal titration calorimetry; His-tag followed by a TEV cleavage site (N); made in house; host or cells: E. coli BL21 (DE3)
Text: (§6) For bacterial expression, full-length mouse SNX1 with an amino-terminal His-tag (mSNX1FL hereafter) was cloned into the pMW172Kan vector [75], and the truncated mSNX1 construct containing residues 1 to 139 was cloned into pGEX4T-2 vector for expression as a thrombin-cleavable amino-terminal GST fusion protein. DNA encoding full-length mouse SNX27 (mSNX27FL hereafter) was inserted into the pMCSG7 vector [76] by the ligation-independent cloning (LIC) approach. Human SNX27 constructs, hSNX27FL, hSNX27FERM, and hSNX27FL single-site mutants R437D, K495D, K496D, R498D, and K501D were cloned into the pET-28a vector by GenScript and codon optimized for bacterial protein expression. An additional TEV cleavage site was inserted between the amino-terminal His-tag and hSNX27 coding sequences.
(§7) All microcalorimetry experiments were conducted at 25°C using a PEAQ ITC (Malvern, UK) in 50 mM HEPES (pH 7.5), 200 mM NaCl, 5% glycerol, and 1 mM β-ME (ITC buffer). […]
(§8) The ITC experiments were conducted with 1 injection of 0.4 μL followed by a series of 12 injections of 3.2 μL each with 180-second intervals and a stirring speed of 850 rpm. […] Data were analyzed with Malvern software package by fitting and normalized data to a single-site binding model, yielding the thermodynamic parameters Kd, ΔH, ΔG, and −TΔS for all binding experiments. […]

hSNX27FL R498D = molecular target: T3, hSNX27FL R498D (Homo sapiens, UniProt Q96L92, R498D); test: ITC, hSNX1 peptide 75-92 against hSNX27FL R498D; assay type: binding; settings: 25°C, 600 μM SNX1_75-92 into 20 μM hSNX27FL R498D
T3 construct: FL, full-length; ITC, isothermal titration calorimetry; His-tag followed by a TEV cleavage site (N); made in house; host or cells: E. coli BL21 (DE3)
Text: as §6, §7, §8

hSNX27FL K501D = molecular target: T4, hSNX27FL K501D (Homo sapiens, UniProt Q96L92, K501D); test: ITC, hSNX1 peptide 75-92 against hSNX27FL K501D; assay type: binding; settings: 25°C, 600 μM SNX1_75-92 into 20 μM hSNX27FL K501D
T4 construct: FL, full-length; ITC, isothermal titration calorimetry; His-tag followed by a TEV cleavage site (N); made in house; host or cells: E. coli BL21 (DE3)
Text: as §6, §7, §8

[6] = molecular target: T5, mSNX27FL preincubated with competing peptide (Mus musculus, UniProt Q3UHD6); test: Competitive ITC of hSNX2 16-33 and hSNX1 75-92 with mSNX27FL; assay type: binding; settings: 25°C
T5 construct: DNA encoding full-length mouse SNX27 (mSNX27FL hereafter) was inserted into the pMCSG7 vector; made in house; host or cells: Escherichia coli BL21 CodonPlus (DE3)
Protocol: as §3, with “The competitive ITC experiments were carried out by titrating 800 μM SNX1_75-92 peptides into 20 μM proteins with 2-fold molar excess SNX2_16-33 peptide preincubated with SNX27 on ice for an hour.” left out
The ITC experiments were conducted with 1 injection of 0.4 μL followed by a series of 12 injections of 3.2 μL each with 180-second intervals and a stirring speed of 850 rpm. The heat exchange of interactions was obtained through integrating the observed peaks and background correction by subtracting the heats of dilution. Data were analyzed with Malvern software package by fitting and normalized data to a single-site binding model, yielding the thermodynamic parameters Kd, ΔH, ΔG, and −TΔS for all binding experiments. […]

[7] = relative to HeLa = 100, mean of n = 3, Fig. 6D
[8] = relative to HeLa = 100, replicate n1, Fig. 6D
[9] = relative to HeLa = 100, replicate n2, Fig. 6D
[10] = relative to HeLa = 100, replicate n3, Fig. 6D

Substance: +GFP-SNX1
- cell surface GLUT1, Mean 2 [1, 7]: 89.92
- cell surface GLUT1 [1, 8]: 81.0353
- cell surface GLUT1 [1, 9]: 95.6847
- cell surface GLUT1 [1, 10]: 93.0328
- cell surface ITGa5, Mean 2 [2, 7]: 94.91
- cell surface ITGa5 [2, 8]: 92.6175
- cell surface ITGa5 [2, 9]: 101.027
- cell surface ITGa5 [2, 10]: 91.0806

Substance: EAGDSDTEGEDIFTGAA [SNX1_35-51]
- Kd ([3]; read-out: Kd): 33.4 ± 1.89 µM

Substance: EAGDSDTEGEKIFTGAA [SNX1_35-51(D45K), SNX1 35–51 peptide with charge swap mutation D45K]
- Kd ([3]; listed as SNX1(D45K)): no detectable binding
- Kd ([3]; listed as hSNX135-51 (D45K)): No binding detected

Substance: GFP-SNX1: GFP-tagged full-length SNX1
- colocalization with EEA1 (SNX1 vs EEA1), mean ([4]; mean of n = 3): 0.4267
- colocalization with EEA1 (SNX1 vs EEA1) ([4]; replicate n1): 0.53
- colocalization with EEA1 (SNX1 vs EEA1) ([4]; replicate n2): 0.34
- colocalization with EEA1 (SNX1 vs EEA1) ([4]; replicate n3): 0.41
- colocalization with SNX6 (SNX1 vs SNX6), mean ([5]; mean of n = 3): 0.6597
- colocalization with SNX6 (SNX1 vs SNX6) ([5]; replicate n1): 0.81
- colocalization with SNX6 (SNX1 vs SNX6) ([5]; replicate n2): 0.506
- colocalization with SNX6 (SNX1 vs SNX6) ([5]; replicate n3): 0.663

Substance: NGIHEEQDQEPQDLFADA [SNX1_75-92]
- Kd (hSNX27FL K495D): no detectable binding
- Kd (hSNX27FL K495D; listed as hSNX175-92): No binding detected
- Kd (hSNX27FL R498D): no detectable binding
- Kd (hSNX27FL R498D; listed as hSNX175-92): No binding detected
- Kd (hSNX27FL K501D): no detectable binding
- Kd (hSNX27FL K501D; listed as hSNX175-92): No binding detected

Substance: TDFEDLEDGEDLFTSTVS [SNX2_16-33]
- Kd ([6]; hSNX2 16-33 titrated into mSNX27FL preincubated with 2-fold molar excess hSNX1 75-92): binding is blocked
- Kd ([6]; hSNX2 16-33 titrated into mSNX27FL preincubated with 2-fold molar excess hSNX1 75-92, listed as hSNX216-33): No binding detected

Substance: TDFEDLEDGESSSTSTVS [SNX2_16-33(DLF/SSS), SNX2 16–33 peptide with triple mutation DLF-SSS]
- Kd ([3]; listed as SNX2(DLF-SSS)): no detectable binding
- Kd ([3]; listed as hSNX216-33 (DLF-SSS)): No binding detected

Substance: TEVVLDDDREDLFAEATEEVS [SNX2_62-82]
- Kd ([3]; read-out: Kd): 22.6 ± 1.89 µM
